Measured values from patent publication US20070081991A1, “Compositions and methods for modulation of immune responses” (Pepgen Corporation, priority 2001, published 2007).
Entries after “also recorded” stand apart in the source; their conditions may differ.

What was measured:
Type in all cases: cell-based, human
[1] = system: CD94/NKG2A+ NK cell lines Nishi and NKL; experiment: NK cell-mediated cytotoxicity, 2 h 51Cr release, peptide-loaded K562-E*01033 targets; conditions: targets incubated overnight at 26° C. with peptide; effectors NKL and Nishi
Method: K562-E*01033 cells were incubated with the different peptides at 26° C. for 15-20 hours, and then tested in 2 h 51Cr release assays. In order to ensure that the levels of HLA-E with a protective peptide, and not the HLA-E levels as such, provided the protective capacity we kept the non-protective peptides, but omitted the B7sp, during the assays. (a) Killing of K562-E*01033 cells by NKL (left) or Nishi (right) after incubation with […], 300 mM hsp60sp, or 30 mM B7sp. 50 mM of P18I10 control peptide and hsp60sp was also included during the assays. Data from an E:T ratio of 30:1 is shown. The figure represents the mean of at least three experiments. Error bars indicate standard error of the mean. (b) Killing of K562-E*01033 cells by NKL (left panel) or Nishi (right panel) incubated over night with 30 mM 7sp, 300 mM P18I10 (pCtrl), 300 mM B7 R5V, 300 mM hsp60sp, or 300 mM hsp60 V5R. 50 mM of all peptides, except B7sp, were included during the assay. Peptide concentrations were chosen according to FIG. 5c. The figure represents the mean of at least three experiments. Error bars indicate standard error of the mean. (c) HLA-E cell surface expression by K562-E*01033 after the assay. A cold target preparation was prepared in parallel as in (a) and (b), and then stained with DX17 mAb (anti-HLA class I), followed by RPE-conjugated goat-anti-mouse IgG. One representative example out of more than 5 is shown. Note that, as in (a) and (b), 50 mM of all peptides, except for B7sp, was present during the time of the assay, explaining the lower HLA-E expression with B7sp compared to Hsp60sp, Hsp60 V5R and B7 R5V. (d) Killing of K562-E*01033 cells by Nishi after incubation for 30 min at room temperature with 0.1 mM B7sp and increasing amounts of competing peptides (hsp60sp, hsp60.4, B7 R5V and P18I10). All the peptides were kept throughout the assay
NK cell-mediated cytotoxicity was measured using a 2 hours standard ^51Cr radioisotope release assay. Briefly, target cells were incubated for 15-20 hours at 26° C. with the various peptides at concentrations ranging from 1-300 μM, and then labeled with ^51Cr. Peptides were washed away prior to setting up the assays, except in some experiments where the non-protective hsp60sp, B7 R5V and hsp60 V5R was kept throughout the assay to assure higher levels of HLA-E expression, as compared to targets incubated with the protective B7sp. In mAb blocking experiments, cells were preincubated with mouse serum, or an irrelevant isotype matched antibody to block Fc-receptors. Blocking of either target or effector cells with mAbs was performed at 4° C., and the antibodies were also included during the assays. […]

[2] = system: NK cells of PB and SF mononuclear cells of RA patients; experiment: NK cell cytokine production on contact with peptide stabilized K562 HLA-E*01033 cells (intracellular staining, flow cytometry); conditions: K562 HLA-E*01033 stabilized with various doses of peptide; 1:1 cell ratio, 4 hours
Method: HLA-E expression was stabilized on K562 cells transfected with HLA-E*01033, by incubation with various doses of HLA-B7 signal sequence derived peptide ([…]) (SEQ ID NO: 3). PB and SF mononuclear cells (MC) of RA patients were then incubated with peptide stabilized K562 cells (1:1 cell ratio) for 4 hours in the presence of GolgiStop™. Cells were surface stained for CD3 and CD56 and thereafter stained intracellularly for IFN-gamma or TNF-alpha. Analysis was performed by flow cytometry.

[3] = system: HLA-E; experiment: HLA-E stabilization assay (cell surface expression by flow cytometry); conditions: K562 cells transfected with HLA-E*01033 or HLA-E*0101; overnight incubation with peptide at 26° C.
Method: Synthetic peptides, purchased from Research Genetics, were dissolved in PBS. The peptides used were B7sp ([…]) (SEC ID NO: 3), hsp60sp ([…]) (SEC ID NO: 2), B7 R5V ([…]) (SEC ID NO: 14), hsp60 V5R ([…]) ([…]), and P18I10 ([…]) (SEC ID NO: 113) (all from Research Genetics, Huntsville, Ala.). Cells and their HLA-E transfected derivatives were incubated with synthetic peptides (3-300 μM) at 26° C. for 15-20 hours in serum-free AIM-V medium (GibcoBRL, Paisley Scotland) at a concentration of 1-3.10^6 cells/ml. Cells were then harvested, washed in PBS, stained with mAbs and analyzed by flow cytometry. Cells were subjected to stress by allowing them to grow at increasing cell density.
To test whether the hsp60-derived peptides were able to bind HLA-E, stabilized HLA-E cell surface expression was stabilized with the different synthetic peptides, by overnight incubation at 26° C. For this purpose MHC class I-deficient cell lines such as 721.221 (which lack HLA-A, -B, -C, and -G, but express HLA-E and -F intracellularly), as well as K562 cells transfected with HLA-E*01033 (K562-E*01033) or HLA-E*0101 were employed. The 721.221 cells and HLA-E transfected, but not untransfected, K562 cells express low levels of HLA-E at the cell surface during normal cell growth.

[4] = system: NKL and Nishi effector cells; experiment: Killing of K562-E*01033 cells grown at increasing cell density (stress), 2 h 51Cr release; conditions: peptide added in the assay; 100 mM B7sp (FIG. 6b legend)
Method: (a) Killing of K562-E*01033 cells (grown at increasing cell densities as in FIG. 3b) by NKL in a 2 h 51Cr release assay. (b) Same experimental setting as above, in the presence of 100 mM B7sp. Closed circles-high density; open squares-medium density; closed triangles-low density. (c) HLA-E expression on the K562-E*01033 cells after culture at increasing cell density.
Briefly, cell cultures were set up at the cell concentration of 0.2.10^6 cells/ml at different time points for a period of up to 6 days. At the end point, cell concentration and viability were determined by trypan blue exclusion. The expression of cell-surface HLA class I molecules was assessed by flow cytometry. Cell cultures with viability higher than 90% and at three different densities were selected as targets for cytotoxic assays. HLA-E Tetramer Production
K562-E*01033 cells grown at different densities were tested as targets in a 2 hours chromium release assay with NKL and Nishi as effector cells. […] The data also subbest that HLA-E expression induced by stress is not sufficient to protect from NK cell mediated killing. […] Therefore it is unlikely that the increased killing after cellular stress observed in some of the experiments herein is due to an increased expression of MIC-A or MIC-B. Up-regulation of other activating ligands, e.g., ULBP's, may also be responsible for the increase in killing.

VMAPRTVLL [B7sp]
protection of K562-E*01033 cells from killing by NK cells [1]: clear protection from killing | NK cell IFN-gamma production [2]: sufficient to inhibit NK cell IFN-gamma and TNF-alpha cytokine production | NK cell TNF-alpha production [2]: sufficient to inhibit NK cell IFN-gamma and TNF-alpha cytokine production | HLA-E cell surface expression (stabilization) [3]: stabilization of HLA-E | rescue of stressed (high density) K562-E*01033 cells from killing [4]: could be rescued from killing by addition of B7sp peptide; also recorded: stressed cells were protected simply by adding the protective B7sp peptide
